# Experimental data published in patent publication US20160222122A1, “INTEGRIN-MODULATING THERAPIES FOR TREATING FIBROTIC DISEASE” (The Johns Hopkins University, priority 2013, published 2016).
# Entries after “also recorded” stand apart in the source; their conditions may differ.
# How the values were obtained:
# [1] = biological target: T1, integrin αvβ3 in its active conformation (Homo sapiens, UniProt P05106+P06756); experiment: Specificity of WOW-1 antibody for active integrin αvβ3 in control fibroblasts by flow cytometry; format: cell-based; details: 10 mM EDTA, 2 mM MnCl2
# T1 construct: endogenous in cells; host or cells: control fibroblasts (read as primary human dermal fibroblasts from healthy controls)
# Experimental: For histograms, FlowJo software divides all events into 256 “bins,” which are numerical ranges for the parameter on the x-axis. The percent of maximum (yaxis) is the number of cells in each bin divided by the number of cells in the bin that contains the largest number of cells. Gating for live cells was based on staining with the LIVE/DEAD® Fixable Dead Cell Stain Kit (Invitrogen, cat#L34955). All staining was performed with fluorophore-conjugated primary and isotype control antibodies. All antibodies were either purchased as fluorochrome conjugates or conjugated via amine-based Alexa Fluor antibody labeling kits (cat#A-20181, A20187, A-20185, A-20186, Invitrogen). Mouse and human active αvβ3 was detected fluorophore-conjugated WOW-1 antibody (a gift from Dr. Sanford Shattil). 10 mM Ethylenediaminetetraacetic acid (EDTA) and 2 mM MnCl2 were used as negative and positive controls for αvβ3 activation in flow cytometry experiments (FIG. 20B). Integrin αvβ5, a subtype known to react with the WOW-1 antibody, was monitored in mouse and human cells with a specific antibody (cat#LS-C36943, Lifespan Biosciences).
# [2] = tested on: Fbn1D1545E/+ and Fbn1W1572C/+ mice (SSS mouse models); experiment: Histology (Masson's trichrome) and immunofluorescence of back skin of treated SSS mice; format: in vivo; details: RDEA119 25 mg/kg twice daily oral gavage, 8 weeks
# Experimental: (§1) All antibodies used to treat mice or cells were azide-free. Male mice were treated with β1 integrin activating antibody (β1aAb, Rat Clone 9EG7, BD Biosciences, special-ordered >98% pure and azide-free) or an isotype-matched control (Rat IgG2a, κ, special-ordered >98% pure and azide-free, BD Biosciences) by intraperitoneal injection at 2 mg/kg every five days for twelve weeks, beginning at one month of age. Complete blood cell counts were performed to exclude pancytopenia in β1aAb-treated animals (FIG. 20A). For the TGFβ-Neutralizing trial, three-month-old male mice were treated with pan-specific TGFβ-Neutralizing antibody (Mouse Clone 1D11, catalog #MAB1835, R&D) or an isotype control (Mouse IgG1, Clone 11711, cat#MAB002, R&D) by intraperitoneal injection at 10 mg/kg every other day for twelve weeks.
# RDEA119 was generously provided by Craig J. Thomas, Samarjit Patnaik, and Juan J. Marugan (National Institutes of Health Chemical Genomics Center, Rockville, Md., USA). […]
# For tissue analysis, animals were euthanized through inhalational halothane (Sigma) or anesthetized with isofluorane. […] Dermal and subcutaneous fat thickness was measured using high-powered fields as described previously. […] Active αvβ3 was detected using the WOW-1 antibody (a gift from Dr. Sanford Shattil) and an anti-mouse Alexa Fluor-594 F(ab′)2 fragment secondary (Invitrogen cat#A11020). […]
# [3] = tested on: Fbn1D1545E/+ and Fbn1W1572C/+ mice (SSS mouse models); experiment: In vivo drug treatment of SSS mouse models: clinical stiffness score and stretched skin area/total surface area ratio; details: RDEA119 25 mg/kg twice daily by oral gavage, 8 weeks from 1 month of age
# Experimental: as §1
# RDEA119 was generously provided by Craig J. Thomas, Samarjit Patnaik, and Juan J. Marugan (National Institutes of Health Chemical Genomics Center, Rockville, Md., USA). RDEA119 was reconstituted in 10% 2-hydroxypropyl-betacyclodextrin (Sigma-Aldrich) dissolved in PBS, and administered twice daily by oral gavage at a dose of 25 mg/kg. […]
# A clinical stiffness score was assigned by five blinded observers. […] Mice were assessed in random order. […] Early in the course of studies, the same mice were assessed by the same observer on a different day. […]
# SSc fibroblasts [4] = experiment: qPCR of miR-29a and collagen mRNAs in cultured SSc fibroblasts; format: cell-based, human; details: inhibitors SD208 (1 μM), U0126 (10 μM)
# Experimental: Primary human dermal fibroblasts (HDFs) were derived from skin biopsies from 5 patients with active diffuse systemic sclerosis and 6 healthy controls. Biopsies were taken from the forearm and cultured as previously described. All experiments were performed in cell lines at low (<5) passage. Primary mouse embryonic fibroblasts (MEFs) were derived from E13.5 embryos as described previously. Murine plasmacytoid dendritic cells (pDCs) were isolated from the spleens of wild-type C57B16/J mice using the Plasmacytoid Dendritic Cell Isolation Kit II (cat#130-092-786, Miltenyi Biotec) and a midiMACS™ Separator (cat#130-042-302, Miltenyi Biotec) according to the manufacturer's instructions. The pDC-containing cell suspensions routinely had greater than 95% purity, as detected by flow cytometry.
# (§2) All cells were counted at splitting and all treatments were performed at 70% confluency. Cells were serum starved 48 hours prior to stimulation with 2 ng/mL recombinant TGFβ1 (cat#240-B-010, R&D). When TGFβ1 or vehicle was added, cell culture dishes were immediately rocked on the same rocker three times at 5% CO2, 37° to control for mechanical MAPK activation. Before lysate harvest, cells were washed with pre-warmed (42°) 1×PBS (Gibco®). All antibody treatments of human fibroblasts were added during starvation 48 hours before TGFβ1 stimulation while inhibitors SD208 (1 μM) and UO126 (10 μM) (cat#s 616456 and 662005, EMD Millipore) were added 6 hours prior to stimulation. Antibodies used in vitro were mouse IgG1 (0.2 mg/mL, Clone P3.6.2.8.1, cat#16-4714-81, eBiosciences), IgG2a (0.2 mg/mL, Clone eBM2a, cat#16-4724, eBiosciences), αvβ3-blocking (30 μg/mL, Clone LM609, cat#MAB1976Z, Millipore), β1-activating (7 μg/mL, Clone TS2/16, cat#14-0299, eBiosciences), and β1-blocking (0.2 mg/mL, Clone P4C10, cat#MAB1987Z, Millipore) antibodies.
# Total RNA was isolated from cultured cells or tissue using Trizol (Invitrogen) according to the manufacturer's protocol. Quantitative PCR for miR-29a and 18S rRNA was performed using pre-designed Taqman primers and probes (ABI) according to manufacturer's instructions. Relative quantification for each transcript was obtained by normalizing against 18S transcript abundance according to the formula 2^−Ct/2^−Ct(18S).
# SSc fibroblasts [5] = experiment: In vitro TGFβ1 stimulation of SSc dermal fibroblasts, Western blotting of pSMAD3 and pERK1/2; format: cell-based, human
# Experimental: as §2
# Before lysate harvest, cells were washed with pre-warmed ([…]) 1×PBS (Gibco®). […] The relative intensities were measured using LiCor Odyssey software. […]
# T1 sequence (P06756 31-889 limits assumed): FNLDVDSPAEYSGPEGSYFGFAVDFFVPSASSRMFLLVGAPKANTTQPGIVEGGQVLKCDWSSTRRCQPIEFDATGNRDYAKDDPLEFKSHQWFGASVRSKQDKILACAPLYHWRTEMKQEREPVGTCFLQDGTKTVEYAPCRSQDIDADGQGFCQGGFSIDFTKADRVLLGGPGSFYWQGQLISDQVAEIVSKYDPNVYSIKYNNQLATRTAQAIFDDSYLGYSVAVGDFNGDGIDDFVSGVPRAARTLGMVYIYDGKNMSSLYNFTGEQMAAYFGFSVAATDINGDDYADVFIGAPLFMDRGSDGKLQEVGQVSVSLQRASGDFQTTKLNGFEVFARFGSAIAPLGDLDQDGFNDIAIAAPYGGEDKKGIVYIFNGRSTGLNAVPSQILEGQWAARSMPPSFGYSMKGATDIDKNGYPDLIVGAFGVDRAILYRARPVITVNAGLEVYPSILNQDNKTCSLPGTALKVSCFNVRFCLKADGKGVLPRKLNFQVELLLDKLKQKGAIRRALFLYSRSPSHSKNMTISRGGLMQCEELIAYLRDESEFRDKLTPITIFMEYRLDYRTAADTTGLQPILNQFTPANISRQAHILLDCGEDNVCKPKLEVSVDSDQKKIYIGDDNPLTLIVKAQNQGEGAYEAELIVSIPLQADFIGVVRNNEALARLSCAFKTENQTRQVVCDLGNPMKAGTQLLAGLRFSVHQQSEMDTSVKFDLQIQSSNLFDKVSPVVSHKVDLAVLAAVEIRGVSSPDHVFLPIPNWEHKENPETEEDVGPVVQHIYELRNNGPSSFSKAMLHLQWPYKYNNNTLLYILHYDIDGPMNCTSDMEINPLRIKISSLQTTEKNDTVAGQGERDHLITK
# T1 sequence (P06756 891-1048 partner limits assumed): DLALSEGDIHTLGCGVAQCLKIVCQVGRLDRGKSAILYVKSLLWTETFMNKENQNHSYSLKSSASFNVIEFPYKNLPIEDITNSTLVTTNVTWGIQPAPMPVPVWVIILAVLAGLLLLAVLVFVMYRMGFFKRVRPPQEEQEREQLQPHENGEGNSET
# T1 sequence (P05106 27-788): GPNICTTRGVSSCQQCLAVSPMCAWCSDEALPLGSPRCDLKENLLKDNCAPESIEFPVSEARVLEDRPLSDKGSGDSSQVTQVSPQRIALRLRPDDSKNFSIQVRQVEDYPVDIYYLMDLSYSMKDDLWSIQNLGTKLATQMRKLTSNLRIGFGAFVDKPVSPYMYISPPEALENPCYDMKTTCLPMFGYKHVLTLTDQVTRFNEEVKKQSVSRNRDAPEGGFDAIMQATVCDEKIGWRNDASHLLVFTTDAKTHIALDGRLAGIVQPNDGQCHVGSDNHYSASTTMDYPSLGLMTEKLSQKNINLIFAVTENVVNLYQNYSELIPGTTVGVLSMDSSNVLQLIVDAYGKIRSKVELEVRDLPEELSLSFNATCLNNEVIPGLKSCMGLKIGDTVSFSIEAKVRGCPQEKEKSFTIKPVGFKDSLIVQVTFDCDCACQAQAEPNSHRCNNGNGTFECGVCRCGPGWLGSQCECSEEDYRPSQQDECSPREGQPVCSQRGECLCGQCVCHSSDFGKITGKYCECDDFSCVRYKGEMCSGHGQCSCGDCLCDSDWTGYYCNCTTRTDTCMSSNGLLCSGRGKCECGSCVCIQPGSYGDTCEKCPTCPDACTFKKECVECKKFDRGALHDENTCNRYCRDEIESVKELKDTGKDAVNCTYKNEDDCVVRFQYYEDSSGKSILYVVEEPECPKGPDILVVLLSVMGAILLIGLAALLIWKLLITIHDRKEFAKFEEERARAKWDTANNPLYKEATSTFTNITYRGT
Structure (SMILES),WOW-1 immunoreactivity [1],expression of miR-29a (SSc fibroblasts [4]),expression of type IA2 and III collagen genes (SSc fibroblasts [4]),further results
"O=C(O)CN(CCN(CC(=O)O)CC(=O)O)CC(=O)O [EDTA, Ethylenediaminetetraacetic acid]",reduced immunoreactivity,–,–,–
[Cl][Mn][Cl] [MnCl2],increased immunoreactivity,–,–,–
COc1cc(F)c(F)c(Nc2ccc(I)cc2F)c1NS(=O)(=O)C1(C[C@H](O)CO)CC1 [RDEA119],–,–,–,dermal collagen accumulation [2]: prevents; loss of subcutaneous fat [2]: prevents; skin stiffness [3]: prevents skin stiffness
Fc1ccc(Cl)cc1-c1nc(Nc2ccncc2)c2nccnc2n1 [SD208],–,"increased expression of miR-29a, this finding did not reach significance; also recorded: normalized",normalized,"ERK1/2 activation (pERK1/2) in response to TGFβ1 (SSc fibroblasts [5]; 2 ng/mL TGFβ1, 5 minutes, antibodies added 48 hours before, SD208 1 μM 6 hours prior): inhibited; also recorded: sensitive; Smad3 phosphorylation (pSMAD3) in response to TGFβ1 (SSc fibroblasts [5]; 2 ng/mL TGFβ1, SD208 1 μM 6 hours prior): sensitive"
N#CC(=C(/N)Sc1ccccc1N)/C(C#N)=C(\N)Sc1ccccc1N [U0126],–,increased miR-29a levels; also recorded: increases miR-29a expression,reduced collagen expression; also recorded: reduces type IA2 and III collagen expression,–
